Key:
Assay type in all cases: cell-based
[1] = molecular target: Short transient receptor potential channel 7 (Homo sapiens, UniProt Q9HCX4); assay: Inhibition of human TRPC7 expressed in HEK293 cells assessed as reduction in OAG-induced calcium influx after 10 mins by fluo-4/AM dye based FLIPR assay
Mus musculus [2] = species: Mus musculus; assay: Selectivity ratio of IC50 for YFP-tagged mouse TRPC7 expressed in thapsigargin treated HEK293 cells to IC50 for mouse TRPC5 expressed in thapsigargin treated HEK293/TREx cells
[3] = molecular target: Transient receptor potential cation channel subfamily V member 2 (Rattus norvegicus, UniProt Q9WUD2); assay: Inhibition of YFP-tagged rat TRPV2 expressed in HEK293 cells assessed as reduction in calcium level by fluo-4 dye based fluorescence assay
[4] = molecular target: T1, Short transient receptor potential channel 3 (Homo sapiens, UniProt Q13507); assay: Inhibition of YFP-tagged human TRPC3 expressed in thapsigargin treated HEK293 cells assessed as reduction in amix-induced calcium level by fluo-4 dye based fluorescence assay
T1 sequence (Q13507 whole entry): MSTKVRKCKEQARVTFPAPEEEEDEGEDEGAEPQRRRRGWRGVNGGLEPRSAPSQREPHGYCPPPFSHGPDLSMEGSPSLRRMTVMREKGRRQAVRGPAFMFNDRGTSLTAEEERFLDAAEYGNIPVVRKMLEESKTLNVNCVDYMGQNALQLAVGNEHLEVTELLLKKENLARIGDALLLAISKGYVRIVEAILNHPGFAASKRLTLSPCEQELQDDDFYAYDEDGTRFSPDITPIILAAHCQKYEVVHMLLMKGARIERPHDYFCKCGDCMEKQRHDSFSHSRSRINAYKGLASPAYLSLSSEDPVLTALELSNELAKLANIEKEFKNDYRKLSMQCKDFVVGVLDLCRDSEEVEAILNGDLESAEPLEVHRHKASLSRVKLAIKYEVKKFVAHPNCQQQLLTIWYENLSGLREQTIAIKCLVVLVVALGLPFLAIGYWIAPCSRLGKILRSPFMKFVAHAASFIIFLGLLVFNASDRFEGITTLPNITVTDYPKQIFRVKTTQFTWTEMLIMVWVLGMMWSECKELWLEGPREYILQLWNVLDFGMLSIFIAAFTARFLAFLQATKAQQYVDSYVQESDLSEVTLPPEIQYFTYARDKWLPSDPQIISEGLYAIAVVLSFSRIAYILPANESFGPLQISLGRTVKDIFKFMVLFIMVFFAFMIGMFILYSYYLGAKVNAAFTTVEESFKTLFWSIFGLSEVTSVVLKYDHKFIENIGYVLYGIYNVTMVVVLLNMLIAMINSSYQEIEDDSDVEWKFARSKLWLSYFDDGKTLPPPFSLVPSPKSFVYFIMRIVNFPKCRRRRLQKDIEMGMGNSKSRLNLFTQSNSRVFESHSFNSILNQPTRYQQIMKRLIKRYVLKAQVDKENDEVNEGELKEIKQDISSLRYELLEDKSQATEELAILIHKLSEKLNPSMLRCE

[5] = molecular target: Transient receptor potential cation channel subfamily V member 4 (Mus musculus, UniProt Q9EPK8); assay: Inhibition of YFP-tagged mouse TRPV4 expressed in HEK293 cells assessed as reduction in calcium level by fluo-4 dye based fluorescence assay
[6] = molecular target: T2, Short transient receptor potential channel 5 (Mus musculus, UniProt Q9QX29); assay: Inhibition of mouse TRPC5 expressed in thapsigargin treated HEK293/TREx cells assessed as reduction in intracellular calcium level in presence of GPCR agonist by fluorescence method
T2 sequence (Q9QX29 whole entry): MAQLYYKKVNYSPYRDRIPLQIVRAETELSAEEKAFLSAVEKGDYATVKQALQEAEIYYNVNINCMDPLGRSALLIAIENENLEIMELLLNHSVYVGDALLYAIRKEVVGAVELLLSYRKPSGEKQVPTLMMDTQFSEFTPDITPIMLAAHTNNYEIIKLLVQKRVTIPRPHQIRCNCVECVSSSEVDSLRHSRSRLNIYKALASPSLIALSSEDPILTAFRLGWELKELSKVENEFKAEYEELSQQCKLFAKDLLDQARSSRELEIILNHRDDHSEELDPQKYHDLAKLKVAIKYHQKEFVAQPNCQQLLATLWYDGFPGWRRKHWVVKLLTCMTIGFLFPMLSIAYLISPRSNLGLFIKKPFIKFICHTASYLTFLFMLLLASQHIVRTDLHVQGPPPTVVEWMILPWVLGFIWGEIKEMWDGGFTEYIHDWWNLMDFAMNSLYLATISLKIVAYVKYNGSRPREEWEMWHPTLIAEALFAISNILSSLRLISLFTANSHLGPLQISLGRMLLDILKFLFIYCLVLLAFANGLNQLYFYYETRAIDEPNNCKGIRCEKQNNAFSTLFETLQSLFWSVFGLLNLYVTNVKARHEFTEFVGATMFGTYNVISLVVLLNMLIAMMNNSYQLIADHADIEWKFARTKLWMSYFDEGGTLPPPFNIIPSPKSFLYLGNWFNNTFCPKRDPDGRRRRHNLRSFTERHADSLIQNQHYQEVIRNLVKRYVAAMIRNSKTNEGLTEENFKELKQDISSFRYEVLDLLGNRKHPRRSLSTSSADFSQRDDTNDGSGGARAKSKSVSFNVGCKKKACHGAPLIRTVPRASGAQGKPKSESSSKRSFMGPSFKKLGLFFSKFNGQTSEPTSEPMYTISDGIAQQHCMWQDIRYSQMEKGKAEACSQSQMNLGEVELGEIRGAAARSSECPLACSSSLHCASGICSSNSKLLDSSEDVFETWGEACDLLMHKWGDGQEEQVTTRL

Mus musculus [7] = species: Mus musculus; assay: Selectivity ratio of IC50 for YFP-tagged mouse TRPC4 beta expressed in thapsigargin treated HEK293 cells co-expressing M3 receptor to IC50 for mouse TRPC5 expressed in thapsigargin treated HEK293/TREx cells

Sequence of Transient receptor potential cation channel subfamily V member 4 (Q9EPK8 whole entry): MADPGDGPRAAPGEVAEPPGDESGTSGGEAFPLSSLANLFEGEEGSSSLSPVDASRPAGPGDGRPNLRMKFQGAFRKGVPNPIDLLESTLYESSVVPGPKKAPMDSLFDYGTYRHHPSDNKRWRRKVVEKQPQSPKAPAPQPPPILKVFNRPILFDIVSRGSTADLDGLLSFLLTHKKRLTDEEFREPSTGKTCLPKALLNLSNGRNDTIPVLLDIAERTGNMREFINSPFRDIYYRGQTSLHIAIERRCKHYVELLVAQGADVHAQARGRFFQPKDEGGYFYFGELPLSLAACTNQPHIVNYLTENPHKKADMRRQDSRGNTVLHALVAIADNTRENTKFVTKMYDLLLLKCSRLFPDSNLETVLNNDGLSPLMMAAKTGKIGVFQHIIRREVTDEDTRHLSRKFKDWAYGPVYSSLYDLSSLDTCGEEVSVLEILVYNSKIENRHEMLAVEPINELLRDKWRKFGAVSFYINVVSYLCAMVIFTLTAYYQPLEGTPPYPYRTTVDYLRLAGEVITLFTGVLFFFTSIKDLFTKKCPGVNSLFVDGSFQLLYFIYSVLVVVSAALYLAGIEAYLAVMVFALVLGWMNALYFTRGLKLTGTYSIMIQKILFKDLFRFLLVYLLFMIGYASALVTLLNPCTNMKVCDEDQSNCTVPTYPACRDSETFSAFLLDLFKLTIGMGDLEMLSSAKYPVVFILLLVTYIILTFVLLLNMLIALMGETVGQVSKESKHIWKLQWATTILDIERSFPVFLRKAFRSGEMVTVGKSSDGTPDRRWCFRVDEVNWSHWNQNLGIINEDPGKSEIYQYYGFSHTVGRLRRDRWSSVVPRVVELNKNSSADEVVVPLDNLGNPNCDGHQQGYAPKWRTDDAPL
Sequence of Short transient receptor potential channel 7 (Q9HCX4 whole entry): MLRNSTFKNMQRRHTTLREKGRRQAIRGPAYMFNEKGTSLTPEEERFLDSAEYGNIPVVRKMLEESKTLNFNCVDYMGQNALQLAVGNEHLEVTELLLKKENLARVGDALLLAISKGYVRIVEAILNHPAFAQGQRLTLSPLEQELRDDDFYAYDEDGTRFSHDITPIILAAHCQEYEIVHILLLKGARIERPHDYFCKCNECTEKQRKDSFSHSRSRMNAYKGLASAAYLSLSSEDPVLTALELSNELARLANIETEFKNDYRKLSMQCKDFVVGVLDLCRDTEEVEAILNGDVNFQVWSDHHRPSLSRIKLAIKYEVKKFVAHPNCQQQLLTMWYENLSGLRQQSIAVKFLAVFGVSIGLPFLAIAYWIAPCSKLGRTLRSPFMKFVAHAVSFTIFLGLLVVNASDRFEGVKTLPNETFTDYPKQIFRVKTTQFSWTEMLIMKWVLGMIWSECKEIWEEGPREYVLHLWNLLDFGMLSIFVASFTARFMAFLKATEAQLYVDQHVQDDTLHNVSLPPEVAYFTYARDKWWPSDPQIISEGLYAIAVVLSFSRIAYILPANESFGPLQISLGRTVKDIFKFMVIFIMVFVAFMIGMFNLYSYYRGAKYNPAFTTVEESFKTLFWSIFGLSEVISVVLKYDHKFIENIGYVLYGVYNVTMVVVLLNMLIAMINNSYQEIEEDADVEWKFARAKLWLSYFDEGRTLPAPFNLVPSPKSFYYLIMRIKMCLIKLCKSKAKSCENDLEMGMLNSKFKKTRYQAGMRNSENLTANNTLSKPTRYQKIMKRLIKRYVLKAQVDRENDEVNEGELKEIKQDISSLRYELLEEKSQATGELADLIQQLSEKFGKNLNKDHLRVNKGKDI
Sequence of Transient receptor potential cation channel subfamily V member 2 (Q9WUD2 whole entry): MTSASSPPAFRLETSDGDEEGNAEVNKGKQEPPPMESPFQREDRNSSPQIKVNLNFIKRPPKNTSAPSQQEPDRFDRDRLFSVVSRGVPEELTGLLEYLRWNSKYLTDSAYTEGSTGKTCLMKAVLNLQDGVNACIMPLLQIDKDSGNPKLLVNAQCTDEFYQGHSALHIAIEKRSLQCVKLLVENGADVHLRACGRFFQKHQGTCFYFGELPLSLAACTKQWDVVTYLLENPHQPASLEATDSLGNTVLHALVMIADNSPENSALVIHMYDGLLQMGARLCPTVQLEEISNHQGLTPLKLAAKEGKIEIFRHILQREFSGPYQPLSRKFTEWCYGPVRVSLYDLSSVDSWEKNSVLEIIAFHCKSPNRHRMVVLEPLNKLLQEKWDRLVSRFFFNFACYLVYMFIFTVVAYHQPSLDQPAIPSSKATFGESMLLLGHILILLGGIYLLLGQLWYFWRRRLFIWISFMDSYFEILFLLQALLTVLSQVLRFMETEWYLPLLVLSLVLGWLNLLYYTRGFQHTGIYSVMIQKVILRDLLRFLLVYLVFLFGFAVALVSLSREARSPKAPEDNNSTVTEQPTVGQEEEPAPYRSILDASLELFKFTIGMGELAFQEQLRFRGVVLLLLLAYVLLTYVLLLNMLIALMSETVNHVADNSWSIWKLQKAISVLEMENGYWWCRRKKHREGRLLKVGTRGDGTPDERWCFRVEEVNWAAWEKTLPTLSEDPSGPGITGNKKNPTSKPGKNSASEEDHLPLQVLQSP

IC50 [1]	IC50 [3]	IC50 [4]	IC50 [5]	IC50 [6]	SMILES	Ratio IC50 (Mus musculus [2])	Ratio IC50 (Mus musculus [7])
0.226 µM	–	–	–	–	N#Cc1ccc(O[C@@H]2c3ccccc3C[C@H]2N2CCC[C@@H](N)C2)c(Cl)c1	–	–
–	> 20 µM	9.1 µM	> 20 µM	1.1 µM	Clc1ccc(Cn2c(CN3CCCC3)nc3ccccc32)cc1 [CLEMIZOLE]	10	6

From ChEMBL document CHEMBL4376804, “Review of Transient Receptor Potential Canonical (TRPC5) Channel Modulators and Diseases” (J Med Chem, 2019)
